We go through 20 molecules from PubChem BioAssay (NCI).

SMILES strings stand for the structures.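 Protocol summary: plate cells (96-well), add compound at 5 concentrations, incubate 48 h, interpolate endpoints linearly. At the GI50, growth is halved. The concentration for full growth arrest is given as TGI.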

Among the test systems are UACC-257 melanoma; SK-OV-3 ovarian; 786-0 renal; NCI-H226 lung; SF-295 CNS; SNB-19 CNS; SF-539 CNS; HCT-15 colon; HOP-92 NSCLC; U251 CNS.
Holding throughout (experiment): NCI tumour cell line growth inhibition, 48 h

On to `O=S1(=O)c2ccccc2NC(c2ccc3ccccc3c2)CC1c1ccccc1F` (centres undefined), for which the TGI in the experiment on UACC-257 melanoma, in the experiment on SK-OV-3 ovarian, in the experiment on 786-0 renal, in the experiment with NCI-H226 lung, with SF-295 CNS and in the experiment with SNB-19 CNS was over 100 µM throughout. Also, the TGI with SF-539 CNS and in the experiment with HCT-15 colon was over 100 µM throughout.

Turning to `N#CC(c1ccc(Cl)cc1)c1cccc(C(C#N)c2ccc(Cl)cc2)n1` (centres undefined), the TGI was 60.6 µM with HOP-92 NSCLC; over 100 µM in the experiment on UACC-257 melanoma; over 100 µM in the experiment on SK-OV-3 ovarian; over 100 µM in the experiment with U251 CNS; over 100 µM with 786-0 renal; over 100 µM in the experiment with NCI-H226 lung. Further, the TGI with SF-295 CNS and in the experiment with SNB-19 CNS was over 100 µM each time.

Take `COc1ccc2c(C3=C(c4cn(C)c5ccccc45)C(=O)NC3=O)cn(C)c2c1`: the GI50 in the experiment on UACC-257 melanoma is 1.61 µM; in the experiment with SK-OV-3 ovarian it was 0.138 µM; in the experiment with U251 CNS it was 0.102 µM; in the experiment with 786-0 renal, 0.255 µM; in the experiment with NCI-H226 lung it was 2.63 µM; with SF-295 CNS it was 0.0649 µM. Moreover, the GI50 was over 25 µM in the experiment with SNB-19 CNS, 0.0556 µM in the experiment on SF-539 CNS and 0.116 µM in the experiment on HCT-15 colon. In addition, the TGI in the experiment on UACC-257 melanoma, in the experiment on SK-OV-3 ovarian, in the experiment with U251 CNS, in the experiment on 786-0 renal, with NCI-H226 lung and with SNB-19 CNS was over 25 µM in each case. The TGI with SF-539 CNS was 0.134 µM; in the experiment with HCT-15 colon, over 25 µM.

Regarding `Cc1ccc(N=Nc2ccc(N(CCC#N)CCC#N)cc2C)c(Br)c1`, the TGI with UACC-257 melanoma was over 100 µM; with SK-OV-3 ovarian it was over 100 µM; in the experiment with U251 CNS, over 100 µM; in the experiment with 786-0 renal, 61.5 µM; with NCI-H226 lung, 61.5 µM; in the experiment with SF-295 CNS, 93.1 µM. Further, the TGI in the experiment with SNB-19 CNS, in the experiment on SF-539 CNS and in the experiment on HCT-15 colon was over 100 µM in each case.

With `CC1(C)CCc2c(c3c(c4c(=O)c(O)c(-c5ccc(O)cc5)oc24)OC(C)(C)CC3)O1`, the GI50 was 14.6 µM with HOP-92 NSCLC; 23.2 µM in the experiment on SK-OV-3 ovarian; 24.7 µM in the experiment with U251 CNS; 37.7 µM with 786-0 renal; 58.5 µM in the experiment on NCI-H226 lung; 34.3 µM in the experiment with SF-295 CNS. In addition, the GI50 was 33.6 µM with SNB-19 CNS and over 100 µM with HCT-15 colon. Further, the TGI in the experiment with HOP-92 NSCLC was 38.2 µM; in the experiment with SK-OV-3 ovarian, 53.4 µM; in the experiment on U251 CNS, 65.5 µM; in the experiment with 786-0 renal, over 100 µM; in the experiment with NCI-H226 lung, over 100 µM; in the experiment on SF-295 CNS, over 100 µM. In addition, the TGI in the experiment on SNB-19 CNS and in the experiment on HCT-15 colon was over 100 µM in each case.

Consider `COC(=O)CC1CCN(C#N)CC1CC[N+](=O)[O-]` (centres undefined), for which the TGI in the experiment on UACC-257 melanoma, with SK-OV-3 ovarian, with U251 CNS, in the experiment on 786-0 renal, in the experiment with NCI-H226 lung and in the experiment on SNB-19 CNS was over 100 µM in each case. In addition, the TGI in the experiment with SF-539 CNS and with HCT-15 colon was over 100 µM in each case.

As for `Cc1nc2ccccc2c(=O)n1-c1ccccc1I`, the TGI with UACC-257 melanoma, in the experiment with SK-OV-3 ovarian, in the experiment with U251 CNS, in the experiment on 786-0 renal, with NCI-H226 lung and in the experiment on SF-295 CNS was over 100 µM throughout. For the same molecule, the TGI in the experiment on SNB-19 CNS and with HCT-15 colon was over 100 µM each time.

Turning to `Cc1ccc(NC2=C(Cl)C(=O)N(Cc3ccccc3)C2=O)cc1O`, the GI50 in the experiment on UACC-257 melanoma was 39.5 µM; in the experiment on SK-OV-3 ovarian, 55.2 µM; in the experiment with U251 CNS, 18.7 µM; in the experiment on 786-0 renal it was 22.6 µM; in the experiment with NCI-H226 lung, 18.1 µM; in the experiment with SF-295 CNS, 22 µM. The GI50 in the experiment on SNB-19 CNS is 41.2 µM; in the experiment on SF-539 CNS it was 25 µM; in the experiment with HCT-15 colon, 33.5 µM. In addition, the TGI in the experiment with UACC-257 melanoma is over 100 µM; with SK-OV-3 ovarian it was over 100 µM; in the experiment on U251 CNS, 84.6 µM; in the experiment with 786-0 renal it was over 100 µM; in the experiment with NCI-H226 lung, 60.6 µM; in the experiment with SF-295 CNS, 81.8 µM. In addition, the TGI was over 100 µM in the experiment on SNB-19 CNS, 76 µM with SF-539 CNS and over 100 µM in the experiment with HCT-15 colon.

For `COc1cc(CNc2cnc3cc(N)cc(N)c3n2)cc(OC)c1`, the GI50 was 10.3 µM in the experiment on HOP-92 NSCLC; 15.4 µM with 786-0 renal; 17.4 µM with NCI-H226 lung; 26.5 µM in the experiment on SF-295 CNS; 23.2 µM with SF-539 CNS; 17.6 µM in the experiment with HCT-15 colon. Further, the TGI in the experiment with HOP-92 NSCLC amounted to 25.9 µM; in the experiment with 786-0 renal, 30 µM; in the experiment with NCI-H226 lung, 55.3 µM; in the experiment with SF-295 CNS, 71.9 µM; in the experiment with SF-539 CNS, 46.9 µM; in the experiment with HCT-15 colon it was 38.1 µM.

Regarding `CCCCCCCCCCCOc1ccc(C(=O)C(=O)c2ccc(OCCCCCCCCCCC)c(OCCCCCCCCCCC)c2)cc1OCCCCCCCCCCC`, the TGI in the experiment with UACC-257 melanoma, in the experiment with SK-OV-3 ovarian, in the experiment on U251 CNS, in the experiment with 786-0 renal, with NCI-H226 lung and in the experiment with SF-295 CNS was over 100 µM throughout. The TGI in the experiment with SNB-19 CNS, in the experiment on SF-539 CNS and in the experiment on HCT-15 colon was over 100 µM throughout.

Take `O=C(COc1ccc(Br)cc1Br)N1N=C(c2ccc([N+](=O)[O-])o2)CC1(O)c1ccccc1` (centres undefined): the TGI is 45.4 µM in the experiment on UACC-257 melanoma; over 100 µM with SK-OV-3 ovarian; 22.9 µM in the experiment on U251 CNS; 44.1 µM with 786-0 renal; 36.4 µM with NCI-H226 lung; 53.7 µM in the experiment on SF-295 CNS. Further, the TGI came to 68.2 µM with SNB-19 CNS and 18.7 µM in the experiment with HCT-15 colon.

As for `CCCCCCCCCCCCCCCCCC(CCCCCCCCCCCCCCCCC)OP(=O)(O)O`, the TGI with HOP-92 NSCLC, in the experiment with UACC-257 melanoma, in the experiment with SK-OV-3 ovarian, in the experiment with U251 CNS, with 786-0 renal and with NCI-H226 lung was over 100 µM throughout. In addition, the TGI in the experiment with SF-295 CNS, with SNB-19 CNS and in the experiment on HCT-15 colon was over 100 µM throughout.

On to `CN(C)C(=N)c1ccccc1`, for which the TGI with HOP-92 NSCLC, with UACC-257 melanoma, in the experiment with U251 CNS, with 786-0 renal, in the experiment with NCI-H226 lung and with SF-295 CNS was over 100 µM in each case. Besides, the TGI with SNB-19 CNS and in the experiment with SF-539 CNS was over 100 µM in each case.

With `Cc1cc(C)nc(NS(=O)(=O)c2ccc(NC(=O)c3ccc(Cl)c4c(Nc5ccc(S(=O)(=O)Nc6nc(C)cc(C)n6)cc5)c5ccccc5nc34)cc2)n1`, the TGI in the experiment with HOP-92 NSCLC is 5.93 µM; in the experiment with UACC-257 melanoma it was 81.6 µM; with SK-OV-3 ovarian, 76.5 µM; in the experiment on U251 CNS, 21.9 µM; with 786-0 renal, 20.4 µM; with SF-295 CNS, over 100 µM. Further, the TGI in the experiment with SNB-19 CNS and with HCT-15 colon was over 100 µM in each case.

Take `N#CC1C(C#N)C2(c3ccccc3)C(c3ccccc3)=NN(c3ccccc3)CC12` (centres undefined): the TGI with UACC-257 melanoma, in the experiment with U251 CNS, with 786-0 renal, in the experiment on NCI-H226 lung, in the experiment on SF-295 CNS and in the experiment with SNB-19 CNS was over 100 µM in each case. Besides, the TGI in the experiment on SF-539 CNS and with HCT-15 colon was over 100 µM throughout.

Regarding `COc1cc2c(cc1OC)-c1c3cc(O)ccc3nn[n+]1CC2`, the TGI in the experiment with SK-OV-3 ovarian, in the experiment with U251 CNS, with 786-0 renal, with NCI-H226 lung, with SF-295 CNS and with SNB-19 CNS was over 100 µM throughout. Besides, the TGI in the experiment on SF-539 CNS was over 100 µM.

For the molecule `O=C1/C(=C/c2ccccc2)CN(C(=O)C(Cl)(Cl)Cl)C/C1=C\c1ccccc1`, the TGI turned out to be 2.92 µM in the experiment on UACC-257 melanoma; 3 µM in the experiment on U251 CNS; 9.42 µM in the experiment with 786-0 renal; 3.24 µM in the experiment with SF-295 CNS; 10.7 µM with SNB-19 CNS; 9.91 µM with SF-539 CNS. In addition, the TGI in the experiment on HCT-15 colon amounted to 3.58 µM.

`O=C(O)CCc1coc2ccc(O)cc12`: the TGI in the experiment on HOP-92 NSCLC, with UACC-257 melanoma, with SK-OV-3 ovarian, in the experiment with U251 CNS, in the experiment on 786-0 renal and in the experiment with SF-295 CNS was over 100 µM throughout. Also, the TGI in the experiment on SNB-19 CNS, in the experiment with SF-539 CNS and in the experiment with HCT-15 colon was over 100 µM each time.

Take `O=C(N/C(=C\c1ccc(/C=C(\NC(=O)c2ccccc2)c2nc3cc([N+](=O)[O-])ccc3[nH]2)cc1)c1nc2cc([N+](=O)[O-])ccc2[nH]1)c1ccccc1`: the TGI in the experiment on HOP-92 NSCLC, in the experiment with UACC-257 melanoma, in the experiment on SK-OV-3 ovarian, with U251 CNS, with 786-0 renal and in the experiment with SF-295 CNS was over 100 µM in each case. In addition, the TGI with SNB-19 CNS, in the experiment with SF-539 CNS and with HCT-15 colon was over 100 µM each time.

Consider `CC1=C(C(=O)NCc2ccccc2)C(/C=C/c2ccccc2)C(C(=O)NCc2ccccc2)=C(C)N1`, for which the TGI in the experiment on HOP-92 NSCLC, in the experiment with UACC-257 melanoma, in the experiment with 786-0 renal, in the experiment on NCI-H226 lung, in the experiment with SF-295 CNS and in the experiment with SNB-19 CNS was over 100 µM throughout. Also, the TGI in the experiment with SF-539 CNS and in the experiment on HCT-15 colon was over 100 µM throughout.
